The text below walks through data of the supplement of paper PMC11208160.

The data set in a line: recombinant UMI read abundance after kanamycin selection (control-corrected) (log10(CPM+1)); higher = more efficient recombination; extreme values may be limits of the assay; sequences stand for … in AGTGCAGAGAAAATCGGCCAGTTTTCTCTGCCTGCAGTCCGCATGCCGTGGGACCCCTTGGGTTCTAACCTGTTGCCTAGATTTATGCAGCGGACTGCCTTTCTCCCAAAGTGATAAACCGG…AGGTTGGTTTCACT; site = the 11-nt donor. Summed up: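 Values are reported as log10(CPM+1), obtained by converting sequencing counts to CPM, averaging replicates and scaling by control-derived factors. The counts came from recombinant UMIs amplified by PCR across the donor–target junction. These UMIs came from a pooled Escherichia coli screen of donor and donor-binding-loop pairs for the IS621 bridge recombinase, plated with IPTG (0.07 mM) plus kanamycin or left unselected, in two replicates each.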
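Further: IS621 bridge recombinase in Escherichia coli cells against a fixed T5 target plasmid.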

Take “CAGTTGACATGGACCGGTTTTCCCGGTAATCCGTATTTGGG (site CAGTAGACTCC)”: the “recombinant UMI read abundance (log10)” value was found to be 0.
Turning to “CAGTTGACATGGACCGGTTTTCCCGGTAATCCGTATTTGGG (site CAGTCGACTCC)”, the “recombinant UMI read abundance (log10)” value was 0.0208.
As to “CAGTTGACATGGACCGGTTTTCCCGGTAATCCGTATTTGGG (site CAGTGGACTCC)”, the “recombinant UMI read abundance (log10)” value worked out at 0.00569.
For “CAGTTGACATGGACCGGTTTTCCCGGTAATCCGTATTTGGG (site CAGTTGACTCC)”, the “recombinant UMI read abundance (log10)” value is 0.53.
On to “CATAAAGCATGGACCGGTTTTCCCGGTAATCCGTATTTGAT (site CATAAAGCTAT)”, for which the “recombinant UMI read abundance (log10)” value is 2.1.
“CATAAAGCATGGACCGGTTTTCCCGGTAATCCGTATTTGAT (site CCTAAAGCTAT)”: the “recombinant UMI read abundance (log10)” value came out at 0.00418.
With “CATAAAGCATGGACCGGTTTTCCCGGTAATCCGTATTTGAT (site CGTAAAGCTAT)”, the “recombinant UMI read abundance (log10)” value is 0.166.
Take “CATAAAGCATGGACCGGTTTTCCCGGTAATCCGTATTTGAT (site CTTAAAGCTAT)”: the “recombinant UMI read abundance (log10)” value is 0.
For “CATACGCCATGGACCGGTTTTCCCGGTAATCCGTATTTGGG (site CATACGCCTCC)”, the “recombinant UMI read abundance (log10)” value came out at 0.0136.
The value for “CATCAGCCATGGACCGGTTTTCCCGGTAATCCGTATTTGAG (site CATCAGCCTCT)” was 0.441; that for “CATCAGTCATGGACCGGTTTTCCCGGTAATCCGTATTTGCA (site CATCAGTCTTG)” was 3.13; that for “CATCCAACATGGACCGGTTTTCCCGGTAATCCGTATTTGTC (site CATCCAACTGA)” was 2.17.
With “CATCGCACATGGACCGGTTTTCCCGGTAATCCGTATTTGGC (site CATCGCACTGC)”, the “recombinant UMI read abundance (log10)” value was determined as 2.26.
Consider “CATCGCCCATGGACCGGTTTTCCCGGTAATCCGTATTTGAT (site CATCGCCCTAT)”, for which the “recombinant UMI read abundance (log10)” value was 0.725.
“CATCTCTCATGGACCGGTTTTCCCGGTAATCCGTATTTGTA (site CATCTCTCTTA)”: the “recombinant UMI read abundance (log10)” value came out at 2.66.
Turning to “CATCTCTCATGGACCGGTTTTCCCGGTAATCCGTATTTGTA (site CCTCTCTCTTA)”, the “recombinant UMI read abundance (log10)” value came out at 1.42.
In the case of “CATCTCTCATGGACCGGTTTTCCCGGTAATCCGTATTTGTA (site CGTCTCTCTTA)”, the “recombinant UMI read abundance (log10)” value worked out at 1.23.
As to “CATCTCTCATGGACCGGTTTTCCCGGTAATCCGTATTTGTA (site CTTCTCTCTTA)”, the “recombinant UMI read abundance (log10)” value was found to be 1.98.
As to “CATGAGGCATGGACCGGTTTTCCCGGTAATCCGTATTTGGT (site CATGAGGCTAC)”, the “recombinant UMI read abundance (log10)” value turned out to be 1.12.
For the sequence “CATGCCTCATGGACCGGTTTTCCCGGTAATCCGTATTTGCT (site CATGCCTCTAG)”, the “recombinant UMI read abundance (log10)” value was determined as 2.76.
Regarding “CATGGAACATGGACCGGTTTTCCCGGTAATCCGTATTTGGA (site CATGGAACTTC)”, the “recombinant UMI read abundance (log10)” value was found to be 1.99.
“CATGGCACATGGACCGGTTTTCCCGGTAATCCGTATTTGGA (site CATGGCACTTC)”: the “recombinant UMI read abundance (log10)” value amounted to 0.46.
For the sequence “CATGTCACATGGACCGGTTTTCCCGGTAATCCGTATTTGGG (site CAAGTCACTCC)”, the “recombinant UMI read abundance (log10)” value was determined as 0.0107.
As to “CATGTCACATGGACCGGTTTTCCCGGTAATCCGTATTTGGG (site CACGTCACTCC)”, the “recombinant UMI read abundance (log10)” value amounted to 0.0251.
Take “CATGTCACATGGACCGGTTTTCCCGGTAATCCGTATTTGGG (site CAGGTCACTCC)”: the “recombinant UMI read abundance (log10)” value was 0.0142.
As to “CATGTCACATGGACCGGTTTTCCCGGTAATCCGTATTTGGG (site CATGTCACTCC)”, the “recombinant UMI read abundance (log10)” value worked out at 0.00831.
As to “CATGTGGCATGGACCGGTTTTCCCGGTAATCCGTATTTGCT (site CATGTGGCTAG)”, the “recombinant UMI read abundance (log10)” value is 1.39.
With “CATGTTCCATGGACCGGTTTTCCCGGTAATCCGTATTTGTT (site CATGTTCCTAA)”, the “recombinant UMI read abundance (log10)” value turned out to be 0.678.
Take “CATTCAACATGGACCGGTTTTCCCGGTAATCCGTATTTGAC (site CATTCAACTGT)”: the “recombinant UMI read abundance (log10)” value turned out to be 0.406.
With “CATTGTACATGGACCGGTTTTCCCGGTAATCCGTATTTGGG (site CATTGTACTCC)”, the “recombinant UMI read abundance (log10)” value was determined as 0.0267.
For the sequence “CATTTCTCATGGACCGGTTTTCCCGGTAATCCGTATTTGTT (site CATTTCTCTAA)”, the “recombinant UMI read abundance (log10)” value turned out to be 1.52.
Turning to “CATTTGCCATGGACCGGTTTTCCCGGTAATCCGTATTTGTG (site CATTTGCCTCA)”, the “recombinant UMI read abundance (log10)” value is 0.302.
“CCAAAACCATGGACCGGTTTTCCCGGTAATCCGTATTTGTT (site CCAAAACCTAA)”: the “recombinant UMI read abundance (log10)” value was found to be 0.00598.
On to “CCAAAGGCATGGACCGGTTTTCCCGGTAATCCGTATTTGCC (site CCAAAGGCTGG)”, for which the “recombinant UMI read abundance (log10)” value was determined as 0.
“CCAACTACATGGACCGGTTTTCCCGGTAATCCGTATTTGGC (site CCAACTACTGC)”: the “recombinant UMI read abundance (log10)” value was found to be 0.
Regarding “CCAATCGCATGGACCGGTTTTCCCGGTAATCCGTATTTGCA (site CCAATCGCTTG)”, the “recombinant UMI read abundance (log10)” value turned out to be 0.
Then “CCAATTACATGGACCGGTTTTCCCGGTAATCCGTATTTGCC (site CCAATTACTGG)”, with 0; and “CCACACACATGGACCGGTTTTCCCGGTAATCCGTATTTGCA (site CCACACACTTG)”, with 2.07.
With “CCACCCTCATGGACCGGTTTTCCCGGTAATCCGTATTTGCT (site CCACCCTCTAG)”, the “recombinant UMI read abundance (log10)” value came out at 1.95.
With “CCACGGACATGGACCGGTTTTCCCGGTAATCCGTATTTGGT (site CCACGGACTAC)”, the “recombinant UMI read abundance (log10)” value worked out at 0.0137.
For “CCACGGCCATGGACCGGTTTTCCCGGTAATCCGTATTTGTA (site CCACGGCCTTA)”, the “recombinant UMI read abundance (log10)” value came to 0.
For “CCACGTCCATGGACCGGTTTTCCCGGTAATCCGTATTTGGT (site CCACGTCCTAC)”, the “recombinant UMI read abundance (log10)” value was 0.0291.
Consider “CCACTTGCATGGACCGGTTTTCCCGGTAATCCGTATTTGTG (site CCACTTGCTCA)”, for which the “recombinant UMI read abundance (log10)” value stood at 0.358.
Then “CCAGATGCATGGACCGGTTTTCCCGGTAATCCGTATTTGCG (site CCAGATGCTCG)”, with 1.59; and “CCAGGATCATGGACCGGTTTTCCCGGTAATCCGTATTTGAT (site CCAGGATCTAT)”, with 0; and “CCAGGCGCATGGACCGGTTTTCCCGGTAATCCGTATTTGAT (site CCAGGAGCTAT)”, with 1.06.
Regarding “CCAGGCGCATGGACCGGTTTTCCCGGTAATCCGTATTTGAT (site CCAGGCGCTAT)”, the “recombinant UMI read abundance (log10)” value is 1.24.
For the sequence “CCAGGCGCATGGACCGGTTTTCCCGGTAATCCGTATTTGAT (site CCAGGGGCTAT)”, the “recombinant UMI read abundance (log10)” value was determined as 0.00758.
For the sequence “CCAGGCGCATGGACCGGTTTTCCCGGTAATCCGTATTTGAT (site CCAGGTGCTAT)”, the “recombinant UMI read abundance (log10)” value came out at 0.707.
The value for “CCAGGGGCATGGACCGGTTTTCCCGGTAATCCGTATTTGAT (site CCAGGAGCTAT)” was 0.735; that for “CCAGGGGCATGGACCGGTTTTCCCGGTAATCCGTATTTGAT (site CCAGGCGCTAT)” was 0.972; that for “CCAGGGGCATGGACCGGTTTTCCCGGTAATCCGTATTTGAT (site CCAGGGGCTAT)” was 1.04.
Turning to “CCAGGGGCATGGACCGGTTTTCCCGGTAATCCGTATTTGAT (site CCAGGTGCTAT)”, the “recombinant UMI read abundance (log10)” value was 0.888.
The value for “CCAGTACCATGGACCGGTTTTCCCGGTAATCCGTATTTGCA (site ACAGTATCTTG)” was 0; that for “CCAGTACCATGGACCGGTTTTCCCGGTAATCCGTATTTGCA (site CCAGTACCTTG)” was 0.
The value for “CCAGTATCATGGACCGGTTTTCCCGGTAATCCGTATTTGAA (site ACAGTATCTTG)” was 0.128.
In the case of “CCAGTATCATGGACCGGTTTTCCCGGTAATCCGTATTTGAA (site CCAGTATCTTT)”, the “recombinant UMI read abundance (log10)” value amounted to 1.05.
Regarding “CCAGTATCATGGACCGGTTTTCCCGGTAATCCGTATTTGAA (site CTAGTATCTGT)”, the “recombinant UMI read abundance (log10)” value is 0.
Consider “CCAGTATCATGGACCGGTTTTCCCGGTAATCCGTATTTGCC (site ACAGTATCTTG)”, for which the “recombinant UMI read abundance (log10)” value was 0.0067.
For “CCAGTATCATGGACCGGTTTTCCCGGTAATCCGTATTTGCC (site CCAGTATCTGG)”, the “recombinant UMI read abundance (log10)” value was 1.44.
As for “CCAGTATCATGGACCGGTTTTCCCGGTAATCCGTATTTGCC (site CTAGTATCTGT)”, the “recombinant UMI read abundance (log10)” value was 0.
In the case of “CCAGTCACATGGACCGGTTTTCCCGGTAATCCGTATTTGGA (site CCAGTCACTTC)”, the “recombinant UMI read abundance (log10)” value was determined as 0.00572.
In the case of “CCAGTGTCATGGACCGGTTTTCCCGGTAATCCGTATTTGCA (site ACAGTATCTTG)”, the “recombinant UMI read abundance (log10)” value stood at 0.
“CCAGTGTCATGGACCGGTTTTCCCGGTAATCCGTATTTGCA (site CCAGTGTCTTG)”: the “recombinant UMI read abundance (log10)” value worked out at 1.5.
For “CCAGTTTCATGGACCGGTTTTCCCGGTAATCCGTATTTGAC (site CCAGTTTCTGT)”, the “recombinant UMI read abundance (log10)” value turned out to be 0.759.
In the case of “CCAGTTTCATGGACCGGTTTTCCCGGTAATCCGTATTTGAC (site CTAGTATCTGT)”, the “recombinant UMI read abundance (log10)” value turned out to be 0.
For the sequence “CCATAAACATGGACCGGTTTTCCCGGTAATCCGTATTTGAA (site CCATAAACTTT)”, the “recombinant UMI read abundance (log10)” value stood at 1.22.
For the sequence “CCATACTCATGGACCGGTTTTCCCGGTAATCCGTATTTGCA (site ACATACTCTTG)”, the “recombinant UMI read abundance (log10)” value amounted to 0.648.
